Molecular target: HGFR (c-Met) (Homo sapiens, UniProt P08581)
Assay: HGFR Continuous-Coupled Spectrophotometric Assay
Assay type: biochemical
Conditions: HGFR enzyme 50 nM, Met-2 peptide substrate, 37° C.
Summary of the method: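 Human HGFR (50 nM final) phosphorylates the Met-2 activation-loop peptide, with ADP formation coupled through PK/LDH to NADH consumption, read as the A340 decrease over 10 min at 37 °C. Buffer was HEPES pH 7.5 with MgCl2, DTT, PEP and ATP.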

HGFR (c-Met), sequence (P08581 974-1390): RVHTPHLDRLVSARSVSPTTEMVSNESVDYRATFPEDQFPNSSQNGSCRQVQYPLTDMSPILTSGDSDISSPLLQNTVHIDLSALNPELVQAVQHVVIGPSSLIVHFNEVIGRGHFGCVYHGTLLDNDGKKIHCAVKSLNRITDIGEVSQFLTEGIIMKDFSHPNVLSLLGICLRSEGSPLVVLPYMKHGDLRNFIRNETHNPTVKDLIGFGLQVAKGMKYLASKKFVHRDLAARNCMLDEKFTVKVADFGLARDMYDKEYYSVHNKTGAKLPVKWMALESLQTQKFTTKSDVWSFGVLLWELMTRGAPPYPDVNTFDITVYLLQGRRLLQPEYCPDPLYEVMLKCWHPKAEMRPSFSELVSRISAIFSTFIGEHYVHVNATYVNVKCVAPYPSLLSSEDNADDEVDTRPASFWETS

| Ki | SMILES |
| --- | --- |
| 149 nM | COc1cc(-c2cnc(N)c(OC(C)c3c(Cl)ccc(F)c3Cl)c2)ccc1COC(=O)N(C)C (centres unmarked) [Example 31, 4-{6-amino-5-[1-(2,6-dichloro-3-fluorophenyl)ethoxy]pyridin-3-yl}-2-methoxybenzyl dimethylcarbamate] |
| 40 nM | CC(Oc1cc(-c2ccc(OC3CCNCC3)cc2)cnc1N)c1c(Cl)ccc(F)c1Cl (centres unmarked) [Example 34, 3-[1-(2,6-Dichloro-3-fluoro-phenyl)-ethoxy]-5-[4-(piperidin-4-yloxy)-phenyl]-pyridin-2-ylamine] |
| 43.5 nM | CC(Oc1cc(-c2ccc(N3CCC(CO)CC3)nc2)cnc1N)c1c(Cl)ccc(F)c1Cl (centres unmarked) [Example 65, {6″-Amino-5″-[1-(2,6-dichloro-3-fluoro-phenyl)-ethoxy]-3,4,5,6-tetrahydro-2H-[1,2′;5′,3″]terpyridin-4-yl}-methanol] |
| 18 nM | CC(Oc1cc(-c2ccc(C(=O)N3CC(N)C3)cc2)cnc1N)c1c(Cl)ccc(F)c1Cl (centres unmarked) [Example 112, 5-{4-[(3-aminoazetidin-1-yl)carbonyl]phenyl}-3-[1-(2,6-dichloro-3-fluorophenyl)ethoxy]pyridin-2-amine] |
| 3790 nM | CC(Oc1nc(-c2ccccc2NS(C)(=O)=O)cnc1N)c1c(Cl)ccc(F)c1Cl (centres unmarked) [Example 94, N-(2-{5-Amino-6-[1-(2,6-dichloro-3-fluoro-phenyl)-ethoxy]-pyrazin-2-yl}-phenyl)-methanesulfonamide] |
| 6280 nM | C[C@@H]1CN(C(=O)c2ccc(-c3cnc(N)c(OC4CCCCc5ccc(F)cc54)c3)cc2)C[C@H](C)N1 (stereo partly drawn) [Example 36, {4-[6-Amino-5-(3-fluoro-6,7,8,9-tetrahydro-5H-benzocyclohepten-5-yloxy)-pyridin-3-yl]-phenyl}-((3R,5S)-3,5-dimethyl-piperazin-1-yl)-methanone] |
| 6 nM | CC(Oc1cc(-c2cccc(C3(C#N)CCNCC3)c2)cnc1N)c1c(Cl)ccc(F)c1Cl (centres unmarked) [Example 153, 4-(3-{6-amino-5-[1-(2,6-dichloro-3-fluorophenyl)ethoxy]pyridin-3-yl}phenyl) piperidine-4-carbonitrile] |
| 45 nM | CC(Oc1cc(-c2ccc(C(=O)NCCCN)cc2)cnc1N)c1c(Cl)ccc(F)c1Cl (centres unmarked) [Example 11, 4-(6-Amino-5-[1-(2,6-dichloro-3-fluorophenyl)ethoxy]pyridin-3-yl}-N-(3-aminopropyl) benzamide] |
| 164 nM | CC(Oc1cc(-c2ccc(NC(=O)C3CCNCC3)nc2)cnc1N)c1c(Cl)ccc(F)c1Cl (centres unmarked) [Example 102, Piperidine-4-carboxylic acid {6′-amino-5′-[1-(2,6-dichloro-3-fluoro-phenyl)-ethoxy]-[3,3′]bipyridinyl-6-yl}-amide] |
| 655 nM | CC(Oc1cc(-c2ccc(CO)cn2)cnc1N)c1c(Cl)ccc(F)c1Cl (centres unmarked) [Example 146, {6′-amino-5′-[1-(2,6-dichloro-3-fluorophenyl)ethoxy]-2,3′-bipyridin-5-yl}methanol] |
| 87.7 nM | CC(Oc1cc(-c2ccc(-c3ccno3)cc2)cnc1N)c1c(Cl)ccc(F)c1Cl (centres unmarked) [Example 25, 3-[1-(2,6-dichloro-3-fluorophenyl)ethoxy]-5-(4-isoxazol-5-ylphenyl)pyridin-2-amine] |
| 22 nM | COc1cc(-c2cnc(N)c(OC(C)c3c(Cl)ccc(F)c3Cl)c2)ccc1OCCO (centres unmarked) [Example 108, 2-(4-{6-amino-5-[1-(2,6-dichloro-3-fluorophenyl)ethoxy]pyridin-3-yl}-2-methoxyphenoxy)ethanol] |
| 200 nM | CC(O)c1cccc(-c2cnc(N)c(OC(C)c3c(Cl)ccc(F)c3Cl)c2)c1 (centres unmarked) [Example 150, 1-(3-{6-amino-5-[1-(2,6-dichloro-3-fluorophenyl)ethoxy]pyridin-3-yl}phenyl)ethanol] |
| 32.7 nM | CC(Oc1cc(-c2ccc(N3CCN(CCO)CC3)nc2)cnc1N)c1c(Cl)ccc(F)c1Cl (centres unmarked) [Example 66, 2-(4-{6′-Amino-5′-[1-(2,6-dichloro-3-fluoro-phenyl)-ethoxy]-[3,3′]bipyridinyl-6-yl}-piperazin-1-yl)-ethanol] |
| 1000 nM | CC(Oc1cc(C(N)=O)cnc1N)c1c(Cl)ccc(F)c1Cl (centres unmarked) [Example 81, 6-Amino-5-[1-(2,6-dichloro-3-fluoro-phenyl)-ethoxy]-nicotinamide] |
| 44 nM | CC(Oc1cc(-c2ccc(C(=O)NC3CCCNC3)cc2)cnc1N)c1c(Cl)ccc(F)c1Cl (centres unmarked) [Example 16, 4-{6-Amino-5-[1-(2,6-dichloro-3-fluorophenyl)ethoxy]pyridin-3-yl}-N-piperidin-3-ylbenzamide] |
| 69 nM | CC(Oc1cc(-c2ccc(CO)nc2)cnc1N)c1c(Cl)ccc(F)c1Cl (centres unmarked) [Example 145, {6′-amino-5′-[1-(2,6-dichloro-3-fluorophenyl)ethoxy]-3,3′-bipyridin-6-yl}methanol] |

| Ki | SMILES |
| --- | --- |
| 37 nM | CNCCNC(=O)c1ccc(-c2cnc(N)c(OC(C)c3c(Cl)ccc(F)c3Cl)c2)cc1 (centres unmarked) [Example 9, 4-{6-Amino-5-[1-(2,6-dichloro-3-fluorophenyl)ethoxy]pyridin-3-yl}-N-[2-(methylamino)ethyl)benzamide] |
| 173 nM | Cc1ccc(F)c(C(C)Oc2cc(-c3ccc(C(=O)N4CCC(N5CCCC5)CC4)cc3)cnc2N)c1Cl (centres unmarked) [Example 56, (4-{6-Amino-5-[1-(2-chloro-6-fluoro-3-methyl-phenyl)-ethoxy]-pyridin-3-yl}-phenyl)-(4-pyrrolidin-1-yl-piperidin-1-yl)-methanone] |
| 60 nM | CNCCN(C)C(=O)c1ccc(-c2cnc(N)c(OC(C)c3c(Cl)ccc(F)c3Cl)c2)cc1 (centres unmarked) [Example 123, 4-{6-amino-5-[1-(2,6-dichloro-3-fluorophenyl)ethoxy]pyridin-3-yl}-N-methyl-N-[2-(methylamino)ethyl]benzamide] |
| 20 nM | CC(Oc1cc(-c2ccc(NCC3(O)CCNCC3)nc2)cnc1N)c1c(Cl)ccc(F)c1Cl (centres unmarked) [Example 124, 4-[({6′-amino-5′-[1-(2,6-dichloro-3-fluorophenyl)ethoxy]-3,3′-bipyridin-6-yl}amino)methyl]piperidin-4-ol] |
| 47 nM | CC(Oc1cc(-c2ccc(OCCC3CCNCC3)nc2)cnc1N)c1c(Cl)ccc(F)c1Cl (centres unmarked) [Example 74, 5-[1-(2,6-Dichloro-3-fluoro-phenyl)-ethoxy]-6′-(2-piperidin-4-yl-ethoxy)-[3,3′]bipyridinyl-6-ylamine] |
| 7120 nM | CS(=O)(=O)Nc1ccc(-c2cnc(N)c(OC3CCCCc4ccc(F)cc43)c2)cc1 (centres unmarked) [Example 38, N-{4-[6-Amino-5-(3-fluoro-6,7,8,9-tetrahydro-5H-benzocyclohepten-5-yloxy)-pyridin-3-yl]-phenyl}-methanesulfonamide] |
| 14700 nM | CC(Oc1cc(-c2ccc(OCC(=O)N3CCNCC3)cc2)cnc1N)c1c(Cl)ccc(F)c1Cl (centres unmarked) [Example 33, 2-(4-{6-Amino-5-[1-(2,6-dichloro-3-fluoro-phenyl)-ethoxy]-pyridin-3-yl}-phenoxy)-1-piperazin-1-yl-ethanone] |
| 79 nM | CC(Oc1cc(-c2ccc(F)c(C(=O)N3C[C@@H](C)N[C@@H](C)C3)c2)cnc1N)c1c(Cl)ccc(F)c1Cl (some centres unmarked) [Example 54, (5-{6-Amino-5-[1-(2,6-dichloro-3-fluoro-phenyl)-ethoxy]-pyridin-3-yl}-2-fluoro-phenyl)-(dimethyl-piperazin-1-yl)-methanone] |
| 11000 nM | CC(Oc1cc(-c2ccc(C(=O)N3CCC(N4CCCC4)CC3)cc2)cnc1N)c1ccccc1 (centres unmarked) [Example 53, {4-[6-Amino-5-(1-phenyl-ethoxy)-pyridin-3-yl]-phenyl}-(4-pyrrolidin-1-yl-piperidin-1-yl)-methanone] |
| 35.3 nM | CC(Oc1cc(-c2ccc(N3CCN(C)CC3)nc2)cnc1N)c1c(Cl)ccc(F)c1Cl (centres unmarked) [Example 63, 5-[1-(2,6-Dichloro-3-fluoro-phenyl)-ethoxy]-6′-(4-methyl-piperazin-1-yl)-[3,3′]bipyridinyl-6-ylamine] |
| 71 nM | CC(Oc1cc(-c2ccc(CO)cc2)cnc1N)c1c(Cl)ccc(F)c1Cl (centres unmarked) [Example 130, (4-{6-amino-5-[1-(2,6-dichloro-3-fluorophenyl)ethoxy]pyridin-3-yl}phenyl)methanol] |
| 37 nM | CNCCCNC(=O)c1ccc(-c2cnc(N)c(OC(C)c3c(Cl)ccc(F)c3Cl)c2)cc1 (centres unmarked) [Example 10, 4-{6-Amino-5-[1-(2,6-dichloro-3-fluorophenyl)ethoxy]pyridin-3-yl}-N-[3-(methylamino)propyl)benzamide] |
| 21.6 nM | COc1cc(-c2cnc(N)c(OC(C)c3c(Cl)ccc(F)c3Cl)c2)ccc1CN1C[C@@H](C)N[C@@H](C)C1 (stereo partly drawn) [Example 27, 3-[1-(2,6-dichloro-3-fluorophenyl)ethoxy]-5-(4-{[(3R,5S)-3,5-dimethylpiperazin-1-yl]methyl}-3-methoxyphenyl)pyridin-2-amine] |
| 860 nM | Cc1noc(C)c1-c1cnc(N)c(OC(C)c2c(Cl)ccc(F)c2Cl)c1 (centres unmarked) [Example 109, 3-[1-(2,6-dichloro-3-fluoropheny)ethoxy]-5-(3,5-dimethylisoxazol-4-yl)pyridin-2-amine] |
| 160 nM | CC(Oc1cc(-c2cnc(OC3CCNCC3)nc2)cnc1N)c1c(Cl)ccc(F)c1Cl (centres unmarked) [Example 116, 3-[1-(2,6-dichloro-3-fluorophenyl)ethoxy]-5-[2-(piperidin-4-yloxy)pyrimidin-5-yl]pyridin-2-amine] |
| 578 nM | CC(Oc1cc(-c2cn(CC(=O)OC(C)(C)C)cn2)cnc1N)c1c(Cl)ccc(F)c1Cl (centres unmarked) [Example 58, (4-{6-Amino-5-[1-(2,6-dichloro-3-fluoro-phenyl)-ethoxy]-pyridin-3-yl}-imidazol-1-yl)-acetic acid tert-butyl ester] |

Same assay, conditions: compound at 1 μM

| inhibition at 1 µM | SMILES |
| --- | --- |
| 86% | CC(Oc1cc(-c2ccc(C(=O)NCCCN)cc2)cnc1N)c1c(Cl)ccc(F)c1Cl (centres unmarked) [Example 11, 4-(6-Amino-5-[1-(2,6-dichloro-3-fluorophenyl)ethoxy]pyridin-3-yl}-N-(3-aminopropyl) benzamide] |
| 91% | CC(Oc1cc(-c2ccc(C(=O)NC3CCCNC3)cc2)cnc1N)c1c(Cl)ccc(F)c1Cl (centres unmarked) [Example 16, 4-{6-Amino-5-[1-(2,6-dichloro-3-fluorophenyl)ethoxy]pyridin-3-yl}-N-piperidin-3-ylbenzamide] |
| 91% | CNCCNC(=O)c1ccc(-c2cnc(N)c(OC(C)c3c(Cl)ccc(F)c3Cl)c2)cc1 (centres unmarked) [Example 9, 4-{6-Amino-5-[1-(2,6-dichloro-3-fluorophenyl)ethoxy]pyridin-3-yl}-N-[2-(methylamino)ethyl)benzamide] |
| 20% | CC(Oc1cc(-c2ccc(C(=O)N3CCC(N4CCCC4)CC3)cc2)cnc1N)c1cccc(C(=O)NCCc2cccc(O)c2)c1 (centres unmarked) [Example 87, 3-(1-{2-Amino-5-[4-(4-pyrrolidin-1-yl-piperidine-1-carbonyl)-phenyl]-pyridin-3-yloxy}-ethyl)-N-[2-(3-hydroxy-phenyl)-ethyl]-benzamide] |
| 89% | CNCCCNC(=O)c1ccc(-c2cnc(N)c(OC(C)c3c(Cl)ccc(F)c3Cl)c2)cc1 (centres unmarked) [Example 10, 4-{6-Amino-5-[1-(2,6-dichloro-3-fluorophenyl)ethoxy]pyridin-3-yl}-N-[3-(methylamino)propyl)benzamide] |
